# Results as given in patent US10525143B2, “Conjugate of polyethylene glycol and anesthetic, and preparation method thereof” (JenKem Technology Co., Ltd. (Tianjin), priority 2015, dated 2020).
# Where a name gives a salt, the structure may show the parent alone.
# Legend:
# [1] = background statement; cited from earlier work
# [2] = single dose injected; postoperative pain; background statement; cited from earlier work
# [3] = tested on: SD rats; experiment: Von Frey test in rat incisional pain model (Brennan method); type: in vivo; details: for Von Frey Hairs (g) 1 h: paw withdrawal threshold 1 h after surgery; for Von Frey Hairs (g) 1 h / Von Frey Hairs (g) 3 h / Von Frey Hairs (g) 6 h / Von Frey Hairs (g) 12 h / Von Frey Hairs (g) 24 h: injected in the incision, 10 mg/kg (counted by lidocaine) or 4 mg/kg (counted by bupivacaine); for Von Frey Hairs (g) 1 h / Von Frey Hairs (g) 3 h / Von Frey Hairs (g) 6 h / Von Frey Hairs (g) 12 h / Von Frey Hairs (g) 24 h / Von Frey Hairs (g) Basline: x±s; for Von Frey Hairs (g) 3 h: paw withdrawal threshold 3 h after surgery; for Von Frey Hairs (g) 6 h: paw withdrawal threshold 6 h after surgery; for Von Frey Hairs (g) 12 h: paw withdrawal threshold 12 h after surgery; for Von Frey Hairs (g) 24 h: paw withdrawal threshold 24 h after surgery; for Von Frey Hairs (g) Basline: paw withdrawal threshold before surgery and administration, 6 rats per group
SMILES,duration of the drug (local anesthesia) [1] [h],Von Frey Hairs (g) 1 h [3] [g],Von Frey Hairs (g) 3 h [3] [g],Von Frey Hairs (g) 6 h [3] [g],Von Frey Hairs (g) 12 h [3] [g],Von Frey Hairs (g) 24 h [3] [g],Von Frey Hairs (g) Basline [3] [g],further results
CCCCN1CCCC[C@H]1C(=O)Nc1c(C)cccc1C [L-bupivacaine],5 to 7,–,–,–,–,–,–,–
CCCCN1CCCCC1C(=O)Nc1c(C)cccc1C (stereo not drawn) [Bupivacaine],–,–,–,–,–,–,–,duration of analgesic effect [2]: less than 7 h
CCCN1CCCC[C@H]1C(=O)Nc1c(C)cccc1C [ropivacaine],4.4,–,–,–,–,–,–,–
CCN(CC)CC(=O)Nc1c(C)cccc1C [Lidocaine hydrochloride],–,6.6 ± 0.5,6.1 ± 0.4,4.0 ± 0.6,1.5 ± 0.4,1.4 ± 0.2,7.5 ± 0.8,–
CCCCN1CCCCC1C(=O)Nc1c(C)cccc1C (stereo not drawn) [Bupivacaine hydrochloride],–,4.3 ± 0.7,6.6 ± 0.4,5.3 ± 0.5,3.4 ± 0.9,1.7 ± 0.4,7.3 ± 0.7,duration of analgesia (in words) ([3]; discussion of Table 1): relatively long duration; onset of analgesic effect (in words) ([3]; discussion of Table 1): takes effect more slowly than lidocaine hydrochloride
CCN(CC)CC(=O)Nc1c(C)cccc1C [lidocaine],1 to 2,–,–,–,–,–,–,–
